Results as given in patent US20250145589A1, “PYRIDINE DERIVATIVE AND USE THEREOF” (SICHUAN HUIYU PHARMACEUTICAL CO., LTD., priority 2021, published 2025).
Like-named read-outs stand apart in the source and are kept apart here.

Experiments:
PI3Kα = PI3Kα (Homo sapiens (Human), UniProt P42336); assay: Inhibition of PI3Kα efficacy assay (ADP-Glo kinase assay); assay type: biochemical; settings: read-out: PI3Kα inhibitory activity (IC50)
Outline: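 Eight five-fold dilutions of compound (2 mM DMSO stock) tested; kinase reaction with PI and ATP ran 60 min at RT, followed by ADP-Glo and detection reagent steps of 40 min each. Four-parameter logistic fitting gave IC50 values.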

PI3Kδ = PI3Kδ (Homo sapiens (Human), UniProt O00329); assay: Inhibition of PI3Kδ efficacy assay (ADP-Glo kinase assay); assay type: biochemical; settings: read-out: PI3Kδ inhibitory activity (IC50)
Outline: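 Luminescent ADP-Glo readout of PI3Kδ: after a 60 min RT reaction with PI/ATP substrate, ATP depletion (40 min) and ADP detection (40 min) steps followed. Compounds tested as eight five-fold serial dilutions; inhibition rates fitted to log(inhibitor) vs. response, variable slope, for IC50.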

KRAS^G12C-SOS1 = KRAS^G12C-SOS1 (Homo sapiens (Human), UniProt P01116, G12C); assay: HTRF KRAS G12C/SOS1 binding assay; settings: Table 5
Procedure: Initially, a 2 mM stock solution of the test compound (dissolved in DMSO) was serially diluted in five-fold concentrations using DMSO to obtain eight working solutions 1 (200×). Subsequently, each of the eight working solutions 1 was further diluted in a 20-fold gradient by adding 5 μL into 95 μL of Diluent buffer, mixed completely with vortex mixer, resulting in eight working solutions 2 (10×). […] Subsequently, 5 μL of Anti-tag 1-Tb^3+ stock solution and 5 μL of Anti-tag2-XL665 were added to each well, mixed, and incubated at 4° C. for 3 hours. Remove the plate and read on an HTRF® compatible reader, with the excitation light wavelength set at 337 nm and readings recorded at 620 nm and 665 nm. The data results were presented as the ratio of the 665 nm signal value to the 620 nm signal value for each well, calculated as follows: […]. The inhibition rate was calculated using the following formula: […]
Data were analyzed using GraphPad Prism with log (inhibitor) vs. response-Variable Slope (four parameters) fitting calculations for IC50 values.

[1] = tested on: MIA PaCa-2 cells (KRAS G12C mutant); assay: MIA PaCa-2 cell anti-proliferation (CellTiter-Glo); assay type: cell-based; settings: Homo sapiens, 72 h; MIA Paca-2 cells, 3 days, Table 7; read-out: MIA PaCa-2 (IC50)
Outline: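 Viable-cell luminescence (CellTiter-Glo, ≥30 min at 25 °C) measured after a 3-day, 37 °C exposure to compounds at 9 points, 4-fold spaced, in DMEM containing 10% FBS plus 2.5% horse serum. IC50 derived versus no-inhibitor wells.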

[2] = tested on: NCI-H358 cells (KRAS G12C mutant); assay: NCI-H358 cell proliferation inhibition (CellTiter-Glo); assay type: cell-based; settings: Homo sapiens, NCI-H358, 72 h; H358 cells (G12C mutation), 3 days, Table 6; read-out: NCI-H358 (IC50)
[3] = tested on: NCI-H358-AMGR drug-resistant cell line; assay: NCI-H358-AMGR drug-resistant cell proliferation inhibitory activity test; assay type: cell-based; settings: 72 h; NCI-H358-AMGR drug-resistant cells, 3 days incubation, CellTiter-Glo
Procedure: Test Example 6t Generation of NCI-H358-AMGR Drug-Resistant Cell Line
NCI-H358 cells were seeded and cultured at 50 to 70% confluence in six-well plate with RPMI-640 (10% FBS) medium at 37° C. with 5%4 CO2. AMG510 was added for induction at three starting concentrations of 1 nM, 10 nM and 50 nM, and the medium containing the same concentration of AMG510 was replaced every 3 days. Cells were passaged once they reached confluence. After every, two passages at a given concentration of drug, the concentration was increased in a 3-old increment until final concentrations of 1 μM for AMG510 was achieved.
NCI-H358-AMGR cells in logarithmic growth phase were collected and seeded into a clear-bottom 96-well plate at a density of 4×10^3 cells per well in 80 μL of medium, and then incubated overnight at 37° C. with 5% CO2. The compounds were serially diluted 5-fold in DMSO to obtain 8 concentrations, and then further diluted with RPMI-640) (10% FBS) cell culture medium to obtain the working solutions (5×), 20 μL of each working solution was added to the cell culture supernatant in each well, and the plate was further incubated for 3 days at 37° C. with 5% CO2. The plate was then equilibrated with CellTiter-Glo® reagent at room temperature (25° C.) for 10-30 minutes. After aspirating 50 μL of the medium, 50 μL of CellTiter-Glo®, reagent was added. The cells were thoroughly mixed with the CellTiter-Glo®, reagent using a microplate shaker for 2 minutes, and then incubated at room temperature for 10 minutes. The […] was placed in a multi-mode microplate reader to record the luminescence values (RLU).
The inhibitory rate was calculated using the following formula: […]
Data were analyzed using GraphPad Prism for IC50 values (Note: The negative control refers to the group without inhibitor).

KRAS^G12C-SOS1, sequence (P01116-2 other isoform, or with tags, fused parts or gaps G12C): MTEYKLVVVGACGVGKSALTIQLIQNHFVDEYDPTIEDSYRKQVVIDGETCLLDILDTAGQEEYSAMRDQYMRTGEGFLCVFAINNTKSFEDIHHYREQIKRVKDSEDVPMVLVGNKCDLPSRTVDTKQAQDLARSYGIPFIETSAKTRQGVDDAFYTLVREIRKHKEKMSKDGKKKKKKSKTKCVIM
PI3Kδ, sequence (O00329 whole entry): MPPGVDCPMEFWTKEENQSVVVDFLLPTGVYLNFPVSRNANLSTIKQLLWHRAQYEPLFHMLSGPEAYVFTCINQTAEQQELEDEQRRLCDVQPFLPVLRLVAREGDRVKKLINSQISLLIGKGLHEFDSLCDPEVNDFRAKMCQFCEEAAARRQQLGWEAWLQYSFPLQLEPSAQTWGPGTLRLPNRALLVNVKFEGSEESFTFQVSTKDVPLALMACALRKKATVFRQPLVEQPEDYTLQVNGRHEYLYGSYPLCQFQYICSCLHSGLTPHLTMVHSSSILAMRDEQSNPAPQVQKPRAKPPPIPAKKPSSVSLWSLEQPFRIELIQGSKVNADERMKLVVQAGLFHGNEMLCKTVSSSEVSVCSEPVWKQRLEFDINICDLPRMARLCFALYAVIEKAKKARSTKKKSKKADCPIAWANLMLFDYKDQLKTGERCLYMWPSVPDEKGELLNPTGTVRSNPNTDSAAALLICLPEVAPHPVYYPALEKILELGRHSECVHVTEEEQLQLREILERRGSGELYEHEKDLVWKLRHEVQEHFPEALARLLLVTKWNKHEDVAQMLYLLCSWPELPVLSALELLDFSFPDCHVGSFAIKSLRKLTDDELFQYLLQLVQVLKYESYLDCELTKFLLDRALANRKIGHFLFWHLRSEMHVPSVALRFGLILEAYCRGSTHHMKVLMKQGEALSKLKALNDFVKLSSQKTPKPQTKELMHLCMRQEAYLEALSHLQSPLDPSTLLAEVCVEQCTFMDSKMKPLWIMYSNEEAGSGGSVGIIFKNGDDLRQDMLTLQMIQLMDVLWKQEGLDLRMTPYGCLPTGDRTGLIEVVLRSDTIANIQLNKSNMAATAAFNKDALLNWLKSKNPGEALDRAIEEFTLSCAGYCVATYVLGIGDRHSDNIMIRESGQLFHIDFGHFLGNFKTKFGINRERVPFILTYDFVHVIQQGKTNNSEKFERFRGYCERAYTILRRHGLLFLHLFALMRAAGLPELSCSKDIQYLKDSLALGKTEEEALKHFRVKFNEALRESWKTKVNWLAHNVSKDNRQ
PI3Kδ, sequence (P27986 whole entry partner): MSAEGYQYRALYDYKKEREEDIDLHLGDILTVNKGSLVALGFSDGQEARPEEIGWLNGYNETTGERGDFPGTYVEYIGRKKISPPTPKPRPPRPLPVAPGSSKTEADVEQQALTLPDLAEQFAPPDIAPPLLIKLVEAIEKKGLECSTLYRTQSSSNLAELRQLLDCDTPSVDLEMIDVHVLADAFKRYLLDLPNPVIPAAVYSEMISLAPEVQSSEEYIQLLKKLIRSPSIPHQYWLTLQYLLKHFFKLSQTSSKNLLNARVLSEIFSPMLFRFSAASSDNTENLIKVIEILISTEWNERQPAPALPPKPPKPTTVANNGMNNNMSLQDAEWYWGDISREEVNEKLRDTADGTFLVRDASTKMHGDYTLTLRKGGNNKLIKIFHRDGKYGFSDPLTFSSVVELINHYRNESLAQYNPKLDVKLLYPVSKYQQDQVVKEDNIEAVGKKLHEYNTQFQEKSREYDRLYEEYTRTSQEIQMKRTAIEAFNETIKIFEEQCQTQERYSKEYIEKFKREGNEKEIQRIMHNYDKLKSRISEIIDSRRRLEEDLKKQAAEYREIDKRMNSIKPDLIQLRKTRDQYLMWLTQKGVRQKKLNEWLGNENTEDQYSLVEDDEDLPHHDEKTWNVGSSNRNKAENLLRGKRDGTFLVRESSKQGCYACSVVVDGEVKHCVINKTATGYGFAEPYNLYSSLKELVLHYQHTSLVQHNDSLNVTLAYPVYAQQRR
PI3Kα, sequence (P42336 whole entry): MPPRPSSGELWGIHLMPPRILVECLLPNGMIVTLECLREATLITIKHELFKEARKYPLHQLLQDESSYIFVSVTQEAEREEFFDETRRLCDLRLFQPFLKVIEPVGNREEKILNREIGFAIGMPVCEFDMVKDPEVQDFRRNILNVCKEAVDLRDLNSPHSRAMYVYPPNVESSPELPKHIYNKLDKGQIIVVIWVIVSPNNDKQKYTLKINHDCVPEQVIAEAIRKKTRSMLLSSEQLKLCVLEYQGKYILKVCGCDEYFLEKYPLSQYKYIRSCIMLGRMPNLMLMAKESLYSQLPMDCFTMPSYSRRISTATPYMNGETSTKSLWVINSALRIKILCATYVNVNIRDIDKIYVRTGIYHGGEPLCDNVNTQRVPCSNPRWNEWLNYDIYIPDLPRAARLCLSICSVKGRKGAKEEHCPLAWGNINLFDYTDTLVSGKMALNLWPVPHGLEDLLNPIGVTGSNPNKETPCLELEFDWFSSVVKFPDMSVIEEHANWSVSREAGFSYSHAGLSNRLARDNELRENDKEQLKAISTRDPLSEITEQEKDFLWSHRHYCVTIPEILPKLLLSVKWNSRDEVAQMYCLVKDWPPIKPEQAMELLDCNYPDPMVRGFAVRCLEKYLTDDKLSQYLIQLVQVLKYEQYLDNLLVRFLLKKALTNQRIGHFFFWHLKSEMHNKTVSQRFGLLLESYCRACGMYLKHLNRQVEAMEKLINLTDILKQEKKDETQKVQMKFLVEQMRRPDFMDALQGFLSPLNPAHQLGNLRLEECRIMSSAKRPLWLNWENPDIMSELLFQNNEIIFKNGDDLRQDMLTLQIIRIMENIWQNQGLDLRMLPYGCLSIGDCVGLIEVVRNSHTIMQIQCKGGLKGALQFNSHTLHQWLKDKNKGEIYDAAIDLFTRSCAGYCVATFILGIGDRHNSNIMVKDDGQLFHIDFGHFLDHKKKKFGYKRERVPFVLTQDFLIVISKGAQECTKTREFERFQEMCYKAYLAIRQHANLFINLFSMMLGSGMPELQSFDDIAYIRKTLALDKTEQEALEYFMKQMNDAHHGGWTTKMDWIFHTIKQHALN
PI3Kα, sequence (P27986 whole entry partner): as the sequence (P27986 whole entry partner) above

CC(=O)/C=C/C(=O)N1CCN(c2ncnc3ccc(-c4cnc(Cl)c(NS(=O)(=O)c5ccc(F)cc5F)c4)cc23)CC1 [Example 34, (E)-N-(2-chloro-5-(4-(4-(4-oxopent-2-enoyl)piperazin-1-yl)quinazolin-6-yl)pyridin-3-yl)-2,4-difluorobenzenesulfonamide]
IC50 (PI3Kα; Table 1): 1.4 nM | IC50 (PI3Kδ; Table 1): 20.8 nM | IC50 (KRAS^G12C-SOS1): 521 nM | IC50 [1]: 254 nM

COc1ncc(-c2ccc3ncnc(N4CC5CCC(C4)N5C(=O)/C=C/C(C)=O)c3c2)cc1NS(=O)(=O)c1ccc(F)cc1F [Example 58, 2,4-difluoro-N-(2-methoxy-5-(4-(8-((E)-4-oxopent-2-enoyl)-3,8-diazabicyclo[3.2.1]octan-3-yl)quinazolin-6-yl)pyridin-3-yl)benzenesulfon-amide]
IC50 (PI3Kα; Table 2): 3.6 nM | IC50 (PI3Kδ; Table 2): 8.3 nM | IC50 (KRAS^G12C-SOS1): 278 nM | IC50 [2]: 18.1 nM | IC50 [1]: 26.2 nM | IC50 [3]: 100 nM

CC(=O)/C=C/C(=O)N1CCN(c2ncnc3ccc(-c4cnc(Cl)c(NS(=O)(=O)c5c(F)cccc5F)c4)cc23)CC1 [Example 84, (E)-N-(2-chloro-5-(4-(4-(4-oxopent-2-enoyl)piperazin-1-yl)quinazolin-6-yl)pyridin-3-yl)-2,6-difluorobenzenesulfonamide]
IC50 (PI3Kα; Table 2): 0.83 nM | IC50 (PI3Kδ; Table 2): 7.6 nM | IC50 (KRAS^G12C-SOS1): 268 nM | IC50 [2]: 13 nM | IC50 [1]: 245 nM | IC50 [3]: 639 nM

CC(=O)/C=C/C(=O)N1CCN(c2ncnc3ccc(-c4cnc(Cl)c(NS(=O)(=O)c5c(F)cccc5F)c4)cc23)[C@@H](C)C1 [Example 88, (S,E)-N-(2-chloro-5-(4-(2-methyl-4-(4-oxopent-2-enoyl)piperazin-1-yl)quinazolin-6-yl)pyridin-3-yl)-2,6-difluorobenzenesulfonamide]
IC50 (PI3Kα; Table 2): 2.6 nM | IC50 (PI3Kδ; Table 2): 11.8 nM | IC50 (KRAS^G12C-SOS1): 219 nM | IC50 [2]: 80.9 nM | IC50 [1]: 333 nM

CC(=O)/C=C/C(=O)N1CCN(c2ncnc3ccc(-c4cnc(Cl)c(NS(=O)(=O)c5c(F)cc(F)cc5F)c4)cc23)CC1 [Example 89, (E)-N-(2-chloro-5-(4-(4-(4-oxopent-2-enoyl)piperazin-1-yl)quinazolin-6-yl)pyridin-3-yl)-2,4,6-trifluorobenzenesulfonamide]
IC50 (PI3Kα; Table 2): 2.2 nM | IC50 (PI3Kδ; Table 2): 8.6 nM | IC50 (KRAS^G12C-SOS1): 404 nM | IC50 [2]: 81.4 nM | IC50 [1]: 511 nM

COc1ncc(-c2ccc3ncnc(N4CCC5(CN(C(=O)/C=C/C(C)=O)C5)C4)c3c2)cc1NS(=O)(=O)c1c(F)cc(F)cc1F [Example 97, (E)-2,4,6-trifluoro-N-(2-methoxy-5-(4-(2-(4-oxopent-2-enoyl)-2,6-diazaspiro[3.4]octan-6-yl)quinazolin-6-yl)pyridin-3-yl)benzenesulfonamide]
IC50 (PI3Kα; Table 2): 1.4 nM | IC50 (PI3Kδ; Table 2): 14.1 nM | IC50 (KRAS^G12C-SOS1): 101 nM | IC50 [2]: 13.7 nM | IC50 [1]: 109 nM

COc1ncc(-c2ccc3ncnc(N4CCN(C(=O)/C=C/C(C)=O)CC4)c3c2)cc1NS(=O)(=O)c1ccncc1F [Example 103, (E)-3-fluoro-N-(2-methoxy-5-(4-(4-(4-oxopent-2-enoyl)piperazin-1-yl)quinazolin-6-yl)pyridin-3-yl)pyridine-4-sulfonamide]
IC50 (PI3Kα; Table 2): 0.95 nM | IC50 (PI3Kδ; Table 2): 32.2 nM | IC50 (KRAS^G12C-SOS1): 203 nM | IC50 [2]: 83 nM | IC50 [1]: 344 nM

COc1ncc(-c2ccc3ncnc(N4CCN(C(=O)/C=C/C(C)=O)CC4)c3c2)cc1NS(=O)(=O)c1cc(Cl)cn1C [Example 104, (E)-4-Chloro-N-(2-methoxy-5-(4-(4-(4-oxopent-2-enoyl)piperazin-1-yl)quinazoline-6-yl)pyridin-3-yl)-1-methyl-1H-pyrrole-2-sulfonamide]
IC50 (PI3Kα; Table 2): 3.8 nM | IC50 (PI3Kδ; Table 2): 32.2 nM | IC50 (KRAS^G12C-SOS1): 169 nM | IC50 [2]: 74.2 nM | IC50 [1]: 139 nM

COc1ncc(-c2ccc3ncnc(N4CCN(C(=O)/C=C/C(C)=O)CC4)c3n2)cc1NS(=O)(=O)c1ccc(F)cc1F [Example 132, (E)-2,4-difluoro-N-(2-methoxy-5-(4-(4-(4-oxopent-2-enoyl)piperazin-1-yl)pyrido[3,2-d]pyrimidin-6-yl)pyridin-3-yl)benzenesulfonamide]
IC50 (PI3Kα; Table 3): 3.6 nM | IC50 (PI3Kδ; Table 3): 29.2 nM | IC50 (KRAS^G12C-SOS1): 318 nM | IC50 [2]: 4 nM | IC50 [1]: 16.1 nM

COc1ncc(-c2ccc3ncnc(N4CCN(C(=O)/C=C/C(C)=O)CC4)c3n2)cc1NS(=O)(=O)c1ccccc1F [Example 133, (E)-2-fluoro-N-(2-methoxy-5-(4-(4-(4-oxopent-2-enoyl)piperazin-1-yl)pyrido[3,2-d]pyrimidin-6-yl)pyridin-3-yl)benzenesulfonamide]
IC50 (PI3Kα; Table 3): 5.4 nM | IC50 (PI3Kδ; Table 3): 20.4 nM | IC50 (KRAS^G12C-SOS1): 251 nM | IC50 [2]: 4.1 nM | IC50 [1]: 12 nM

CNC(=O)/C=C/C(=O)N1CCN(c2ncnc3ccc(-c4cnc(OC)c(NS(=O)(=O)c5ccc(F)cc5F)c4)cc23)CC1 [Example 179, (E)-4-(4-(6-(5-((2,4-difluorophenyl)sulfonamido)-6-methoxy-pyridin-3-yl)quinazolin-4-yl)piperazin-1-yl)-N-methyl-4-oxobut-2-enamide]
IC50 (PI3Kα; Table 4): 0.37 nM | IC50 (KRAS^G12C-SOS1): 147 nM | IC50 [2]: 276 nM | IC50 [1]: 87.8 nM

CC(=O)/C=C/C(=O)N1CCN(c2ncnc3ccc(-c4cnc(N(C)C)c(NS(=O)(=O)c5ccc(F)cc5F)c4)cc23)CC1 [Example 195, (E)-N-(2-(dimethylamino)-5-(4-(4-(4-oxopent-2-enoyl)piperazin-1-yl)quinazolin-6-yl)pyridin-3-yl)-2,4-difluorobenzenesulfonamide]
IC50 (PI3Kα; Table 4): 2.4 nM | IC50 (PI3Kδ; Table 4): 13.5 nM | IC50 (KRAS^G12C-SOS1): 158 nM | IC50 [2]: 43.9 nM | IC50 [1]: 93.3 nM | IC50 [3]: 92.3 nM
